Laboratory results from ChEMBL document CHEMBL1201862, “PubChem BioAssay data set” (2004).
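48-hour exposure; five concentrations; linearly interpolated endpoints. At the GI50, growth is halved.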 Calls of active or inactive are those of the source. Cut-off read from the data, not from the text of the source: active = GI50 up to about 1.1 µM and inactive = higher.

Columns and labels:
Experiment in all cases: NCI anticancer screen, dose series, 48 h
[1] = tested on: 786-0
[2] = tested on: HCC 2998
[3] = tested on: HL-60
[4] = tested on: HT-29
[5] = tested on: K562
[6] = tested on: KM12
[7] = tested on: LOX IMVI
[8] = tested on: M14
[9] = tested on: NCI-H23
[10] = tested on: PC-3
[11] = tested on: RPMI-8226
[12] = tested on: SK-MEL-28
[13] = tested on: SK-OV-3
[14] = tested on: SNB-75
[15] = tested on: SR
[16] = tested on: SW-620
[17] = tested on: TK-10
[18] = tested on: UACC-257
[19] = tested on: MDA-MB-435

SMILES | GI50 [1] | GI50 [2] | GI50 [3] | GI50 [4] | GI50 [5] | GI50 [6] | GI50 [7] | GI50 [8] | GI50 [9] | GI50 [10] | GI50 [11] | GI50 [12] | GI50 [13] | GI50 [14] | GI50 [15] | GI50 [16] | GI50 [17] | GI50 [18] | GI50 [19]
COc1cc(CC(C)N)ccc1O (centres undefined) | > 100 µM (inactive) | > 100 µM (inactive) | > 100 µM (inactive) | > 100 µM (inactive) | > 100 µM (inactive) | > 100 µM (inactive) | > 100 µM (inactive) | > 100 µM (inactive) | > 100 µM (inactive) | > 100 µM (inactive) | > 100 µM (inactive) | > 100 µM (inactive) | > 100 µM (inactive) | > 100 µM (inactive) | > 100 µM (inactive) | > 100 µM (inactive) | > 100 µM (inactive) | > 100 µM (inactive) | 
Cc1ccc(/C(Cl)=C/C=C(C#N)C#N)cc1 | 1.88 µM (inactive) |  | 2 µM (inactive) | 2.59 µM (inactive) | 0.817 µM (active) | 5.22 µM (inactive) | 1.17 µM (inactive) | 2.51 µM (inactive) | 1.76 µM (inactive) | 4.01 µM (inactive) | 2.35 µM (inactive) | 2.14 µM (inactive) | 5.78 µM (inactive) | 13.2 µM (inactive) | 1.37 µM (inactive) | 1.91 µM (inactive) | 2.25 µM (inactive) | 2.52 µM (inactive) | 2.47 µM (inactive)
O=C(O)C1Cc2[nH]cnc2CN1 (centres undefined) | > 100 µM (inactive) | > 100 µM (inactive) | > 100 µM (inactive) | > 100 µM (inactive) | > 100 µM (inactive) | > 100 µM (inactive) | > 100 µM (inactive) | > 100 µM (inactive) | > 100 µM (inactive) |  | > 100 µM (inactive) | > 100 µM (inactive) | > 100 µM (inactive) | > 100 µM (inactive) | > 100 µM (inactive) | > 100 µM (inactive) | > 100 µM (inactive) | > 100 µM (inactive) | 
COc1ccc(N2C(=O)C3c4[nH]c5ccccc5c4C4CCCCCCC4C3C2=O)cc1 (centres undefined) | 3.13 µM (inactive) | 11.2 µM (inactive) | 22.5 µM (inactive) | 23 µM (inactive) | 10.1 µM (inactive) | > 51.2 µM (inactive) | 5 µM (inactive) | 11.9 µM (inactive) | 13.1 µM (inactive) |  | 50.4 µM (inactive) | 18.8 µM (inactive) | 14.4 µM (inactive) | 11.9 µM (inactive) | 6.52 µM (inactive) | 7.14 µM (inactive) | 20.1 µM (inactive) | 38.9 µM (inactive) | 
CC(C)(c1ccccc1)c1ccc(Oc2ccc(C#N)c(C#N)c2)cc1 | > 10 µM (inactive) | > 10 µM (inactive) | 20.5 µM (inactive) | > 10 µM (inactive) | 15 µM (inactive) | > 10 µM (inactive) | > 10 µM (inactive) | 71.8 µM (inactive) | 25 µM (inactive) |  | 10.2 µM (inactive) | > 10 µM (inactive) | > 10 µM (inactive) | > 10 µM (inactive) | 6.41 µM (inactive) | > 100 µM (inactive) | > 10 µM (inactive) | > 10 µM (inactive) | 
CC1=C2C(=O)O[C@@H](c3ccoc3)[C@]2(C)CCC1 [FRAXINELLONE] | > 100 µM (inactive) | > 100 µM (inactive) | > 100 µM (inactive) | > 100 µM (inactive) | > 100 µM (inactive) | > 100 µM (inactive) | > 100 µM (inactive) | > 100 µM (inactive) | > 100 µM (inactive) |  | > 100 µM (inactive) | > 100 µM (inactive) | > 100 µM (inactive) | 77.1 µM (inactive) | > 100 µM (inactive) | > 100 µM (inactive) | > 100 µM (inactive) | > 100 µM (inactive) | 
